Here are results for 2 compounds from patent US20250144140A1, “METHODS FOR ALLOGENEIC HEMATOPOIETIC STEM CELL TRANSPLANTATION” (Orca Biosystems, Inc., priority 2022, published 2025).

Data set [1] deals with subjects with advanced hematologic malignancies undergoing myeloablative allogeneic hematopoietic cell transplantation. Particulars: in vivo.
Description: Acute GVHD was staged and graded per MAGIC Standardization criteria.
Acute GVHD was staged and graded per Mount Sinai Acute GvHD International Consortium (MAGIC) Standardization criteria.
The test system is the same in data set [2]. In words: GVHD and relapse-free survival (GRFS). Type of data set: in vivo, human. Particulars: Example 3, tacrolimus-only relative to sirolimus-only patients. From the text:
GVHD and relapse-free survival is a composite readout that can refer to survival without relapse or Grade ≥3 acute or extensive chronic GVHD. At the time of reporting, the percent of GVHD-free and relapse-free survival to one-year post-transplant was 74% for the study group, compared to 34% for the SOC cohort, as shown in FIG. 4F. The difference was statistically significant (p=0.0001 by log-rank test).

Data set [3] has the same test system. In words: Disease relapse / relapse-free survival / disease status after therapy. Type of data set: in vivo, human. Particulars: Example 3, tacrolimus-only relative to sirolimus-only patients.
Description: Incidence of disease relapse: For acute leukemias, relapse was defined as any of the following (MRD^+ alone was insufficient): (i) ≥5% blasts in the bone marrow or peripheral blood; or (ii) Reappearance of pre-transplant cytogenetic abnormality; or (iii) new evidence or redevelopment of extramedullary disease. For MDS, relapse was defined as any of the following: (i) satisfying criteria for evolution into acute leukemia; (ii) reappearance of pre-transplant morphologic abnormalities, detected in bone marrow specimens; or, (iii) reappearance of pre-transplant cytogenetic abnormality in at least one metaphase on each of two separate consecutive examinations at least one month apart, regardless of the number of metaphases analyzed.
Subjects in the study were first evaluated for relapse on day ^+90 post-transplant.
Data set [4] shares this test system. In words: Chronic GVHD, per NIH consensus criteria. Type of data set: in vivo, human. Particulars: Example 3, serum tacrolimus trough level higher vs lower than 4 ng/ml. As for the experimental part: Chronic GVHD was diagnosed, staged, and graded per the International NIH Chronic GVHD Diagnosis and Staging Consensus Working Group criteria.
Chronic GVHD: As chronic GVHD (cGVHD) is associated with significant morbidity and with decreased survival, reducing the severity or incidence of cGVHD has the potential to greatly benefit graft recipients. Chronic GVHD was diagnosed per 2014 International NIH Chronic GVHD Diagnosis and Staging Consensus Working Group criteria.
Analysis was conducted using a cutoff of 365 days (i.e., cGVHD events that occur after Day ^+365 were not included). […] Additionally, several subjects in the study group have undergone greater than 2.5 years of follow-up with no cGVHD symptoms reported.

The test system is the same in data set [5]. Nature of the data set: Overall survival. Type of data set: in vivo, human. Particulars: Example 3, tacrolimus-only relative to sirolimus-only patients. An excerpt: Overall survival: OS was defined as the time from the date of transplant to the date of death from any cause or, for surviving patients, to the date of last follow-up. […] The difference was statistically significant (p=0.0242 by log-rank test).

Data set [6] has as its system Patients with hematologic malignancies. Nature of the data set: Relapse, non-relapse mortality, relapse-free survival, GRFS and overall survival after transplant. It is filed as in vivo, human. Particulars: with Orca-T; relapse-free survival through 1 year; FIG. 14. An excerpt: FIGS. 1A-B illustrate the schematics of the transplant according to the methods described herein (identified as High-Precision Orca-T or Orca-T) and the differences compared to a standard of care (SOC) cohort (identified as Conventional Transplant or SOC).

SMILES strings stand for the structures.

For the compound `C=CC[C@@H]1/C=C(\C)C[C@H](C)C[C@H](OC)[C@H]2O[C@@](O)(C(=O)C(=O)N3CCCC[C@H]3C(=O)O[C@H](/C(C)=C/[C@@H]3CC[C@@H](O)[C@H](OC)C3)[C@H](C)[C@@H](O)CC1=O)[C@H](C)C[C@@H]2OC` [tacrolimus], the GVHD rates result in data set [1] is “higher”. Further, the GRFS rates result in data set [2] is given as “improved”. The relapse rates result in data set [3] is on record as “improved”. In data set [4], the “chronic GVHD rates” value is “improvements”. For the same compound, in data set [5], the overall survival rates result is listed as “improved” and the “survival (FIG. 7E)” value is “improved”.
On to `S=P(N1CC1)(N1CC1)N1CC1` [thiotepa], for which, in data set [6], the “effect of addition of thiotepa to busulfan-based conditioning regimens on relapse and non-relapse mortality” value is “decreases relapse without increasing non-relapse mortality”.
